3 molecules from patent US7696246B2 (Ligand Pharmaceuticals Incorporated, priority 1999, dated 2010) can be followed below.

SMILES strings stand for the structures.

In data set [1] the target is T1, human AR (Homo sapiens, UniProt P10275).
T1 sequence (P10275 1-920): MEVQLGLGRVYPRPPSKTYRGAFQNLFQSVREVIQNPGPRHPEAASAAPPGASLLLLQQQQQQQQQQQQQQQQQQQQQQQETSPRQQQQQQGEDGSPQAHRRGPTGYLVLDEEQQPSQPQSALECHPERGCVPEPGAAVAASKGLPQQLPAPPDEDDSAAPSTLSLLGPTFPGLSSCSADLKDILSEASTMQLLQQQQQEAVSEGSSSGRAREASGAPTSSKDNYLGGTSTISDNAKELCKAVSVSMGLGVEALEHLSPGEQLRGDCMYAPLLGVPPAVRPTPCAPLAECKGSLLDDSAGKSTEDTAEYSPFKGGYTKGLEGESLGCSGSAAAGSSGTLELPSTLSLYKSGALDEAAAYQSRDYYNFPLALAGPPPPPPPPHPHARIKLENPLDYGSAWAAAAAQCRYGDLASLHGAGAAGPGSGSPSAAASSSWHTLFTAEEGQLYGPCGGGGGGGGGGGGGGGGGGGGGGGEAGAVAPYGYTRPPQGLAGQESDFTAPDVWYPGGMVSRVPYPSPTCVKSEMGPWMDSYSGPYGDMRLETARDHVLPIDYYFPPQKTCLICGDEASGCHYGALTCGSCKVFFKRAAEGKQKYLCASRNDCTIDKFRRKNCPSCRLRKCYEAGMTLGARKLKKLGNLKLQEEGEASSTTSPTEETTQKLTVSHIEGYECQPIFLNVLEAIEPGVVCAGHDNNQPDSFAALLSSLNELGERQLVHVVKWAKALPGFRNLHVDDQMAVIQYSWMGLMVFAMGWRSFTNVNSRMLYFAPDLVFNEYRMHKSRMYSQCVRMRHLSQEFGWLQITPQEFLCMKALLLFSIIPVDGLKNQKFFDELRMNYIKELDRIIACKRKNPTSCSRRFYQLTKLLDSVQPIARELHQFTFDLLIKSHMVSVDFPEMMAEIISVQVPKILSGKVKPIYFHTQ
The experiment in a line: Co-transfection assay, AR agonist activity (CV-1 cells, MTV-LUC reporter). Type of data set: cell-based. As to conditions: CV-1 cells; agonist potency EC50.

For data set [2], the target named is T1, human AR. The experiment in a line: Co-transfection assay, AR antagonist activity (CV-1 cells, in presence of DHT). The class given is cell-based. As to conditions: for AR Antagonist CV-1 Cells Efficacy (%): percent maximal inhibition, DHT at its EC50; for IC50: read-out: AR Antagonist CV-1 Cells Potency.
Data set [3] concerns the target T1, human AR. The experiment in a line: AR whole cell competitive binding assay (COS-1 cells, 3H-DHT). Conditions: 1 nM 3H-DHT, Cheng-Prusoff.
Data set [4] deals with T2, PR (Homo sapiens, UniProt P06401).
T2 sequence (P06401 1-933): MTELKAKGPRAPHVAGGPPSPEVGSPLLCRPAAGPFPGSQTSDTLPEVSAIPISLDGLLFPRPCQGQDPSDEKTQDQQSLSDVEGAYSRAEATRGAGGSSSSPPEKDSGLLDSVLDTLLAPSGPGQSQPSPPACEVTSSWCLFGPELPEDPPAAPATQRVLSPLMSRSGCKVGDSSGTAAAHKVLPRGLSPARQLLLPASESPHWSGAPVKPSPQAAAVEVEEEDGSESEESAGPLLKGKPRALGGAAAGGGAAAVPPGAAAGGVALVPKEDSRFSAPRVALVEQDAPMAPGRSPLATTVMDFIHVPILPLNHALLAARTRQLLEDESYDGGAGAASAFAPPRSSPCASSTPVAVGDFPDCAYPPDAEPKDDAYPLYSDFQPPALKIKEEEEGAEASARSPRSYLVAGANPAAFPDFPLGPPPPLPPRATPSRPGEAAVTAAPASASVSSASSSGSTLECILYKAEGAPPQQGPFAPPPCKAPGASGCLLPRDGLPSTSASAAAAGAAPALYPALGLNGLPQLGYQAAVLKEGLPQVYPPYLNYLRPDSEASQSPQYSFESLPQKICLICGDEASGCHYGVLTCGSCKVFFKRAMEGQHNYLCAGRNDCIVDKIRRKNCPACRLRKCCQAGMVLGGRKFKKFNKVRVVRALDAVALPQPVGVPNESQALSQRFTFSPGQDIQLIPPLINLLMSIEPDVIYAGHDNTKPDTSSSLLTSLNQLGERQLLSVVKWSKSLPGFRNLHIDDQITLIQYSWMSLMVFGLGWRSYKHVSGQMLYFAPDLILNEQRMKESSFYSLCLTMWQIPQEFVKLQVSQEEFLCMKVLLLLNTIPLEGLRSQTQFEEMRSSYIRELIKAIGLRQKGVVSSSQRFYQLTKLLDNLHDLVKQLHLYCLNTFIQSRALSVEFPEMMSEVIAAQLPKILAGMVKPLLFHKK
The experiment in a line: PR competitive binding assay. Conditions: Cheng-Prusoff.
Method: After correcting for non-specific binding, IC50 values were determined. […] The IC50 value was determined graphically from a log-logit plot of the data. The Ki values were determined by application of the Cheng-Prusoff equivuation to the IC50 values, the labeled ligand concentration and the Kd of the labeled ligand.

In data set [5] the target is T2, PR. The experiment in a line: Co-transfection assay, PR agonist activity (CV-1 cells). The class given is cell-based. Further details: expressed in transfected cells; host or cells: CV-1 cells. Conditions: for EC50: agonist potency EC50; for PR Agonist CV-1 Cells Efficacy (%): percent maximal response relative to reference agonist progesterone.
Data set [6] has as its target T2, PR. The experiment in a line: Co-transfection assay, PR antagonist activity (CV-1 cells, in presence of progesterone). The class given is cell-based. Also on record: expressed in transfected cells; host or cells: CV-1 cells. As to conditions: for PR Antagonist CV-1 Cells Efficacy (%): percent maximal inhibition, progesterone at its EC50; for IC50: read-out: PR Antagonist CV-1 Cells Potency.

Broadly, the melting point is the temperature of the solid-liquid transition. The term EC50 denotes the concentration giving half of the maximal effect. Broadly, the Ki is a measure of affinity in units of concentration, obtained from inhibition or displacement. The low end stands for a stronger hold on the target, the high end for a looser hold on the target.

`CC(C)(O)C(=O)Nc1ccc2c(C(F)(F)F)cc(=O)[nH]c2c1`: the melting point lay within 289 to 291 °C.
For the molecule `CC1(C)OC(=S)Nc2ccc(C3=CCCCC3)cc21` [Compound 689, 6-(1-Cyclohexenyl)-1,4-dihydro-4,4-dimethyl-1,3-benzo[d]oxazin-2-thione], the EC50 in data set [1] was > 10000 nM. In addition, in data set [2], the “AR Antagonist CV-1 Cells Efficacy (%)” value stood at 89% and the IC50 was 40 nM. For the same molecule, the Ki in data set [3] turned out to be 132 nM. In addition, in data set [4], the Ki is 23 nM. Besides, in data set [5], the EC50 was determined as 2700 nM and the “PR Agonist CV-1 Cells Efficacy (%)” value stood at 105%. In data set [6], the “PR Antagonist CV-1 Cells Efficacy (%)” value is recorded as 47% and the IC50 was found to be 35 nM.
In the case of `CC1(C)OC(=O)Nc2ccc(C3=CCCCC3)cc21` [Compound 667, 6-(1-Cyclohexenyl)-1,4-dihydro-4,4-dimethyl-1,3-benzo[d]oxazin-2-one], in data set [1], the EC50 is > 10000 nM. In data set [2], the “AR Antagonist CV-1 Cells Efficacy (%)” value is reported as 89% and the IC50 came to 27 nM. For the same molecule, the Ki in data set [3] came out at 7.4 nM. In data set [4], this molecule gave a Ki of 144 nM. In data set [5], the EC50 is > 10000 nM; the “PR Agonist CV-1 Cells Efficacy (%)” value was “na (na = not active (i.e. efficacy of <20 and potency of >10,000))”. Also, in data set [6], the “PR Antagonist CV-1 Cells Efficacy (%)” value came out at 89% and the IC50 was 70 nM.
